According to patent US20020151583A1, “Prevention of liver cancer by administration of simvastatin” (priority 2001, published 2002):

Experiments:
[1] = test system: liver cancer; experiment: Clinical case reports: imaging studies of the liver (abdominal ultrasound, MRI) for new liver masses; assay type: in vivo, patients
Procedure: (§1) In order to avoid unforeseen side effects, the treatment was initiated at a 20 mg dose once daily for one week. The dose was then increased to 40 mg daily during the following week, and was again increased to 60 mg daily during the third week. During the fourth week, the dose was increased to 80 mg daily (two tablets of 40 mg each) and remained the same thereafter. Following the administration of simvastatin as described above, the patients' alphafetoprotein levels were monitored on a monthly basis until values reached normal levels and then every three months thereafter in association with liver function tests and coagulation studies as part of a follow-up. In addition, an abdominal ultrasound test was performed every four months in an attempt to identify any new liver masses, and MRI (magnetic resonance imaging) studies of the liver were performed.

[2] = test system: alphafetoprotein; experiment: Clinical case reports: monitoring of serum alphafetoprotein level under daily oral simvastatin; assay type: in vivo, patients
Procedure: as §1

CCC(C)(C)C(=O)OC1C[C@@H](C)C=C2C=C[C@H](C)[C@H](CC[C@@H]3C[C@@H](O)CC(=O)O3)[C@H]21 (relative stereo) [simvastatin, butanoic acid, 2,2-dimethyl-,1,2,3,7,8,8a-hexahydro-3,7-dimethyl-8-[2-(tetrahydro-4-hydroxy-6-oxo-2H-pyran-2-yl)-ethyl]-1-naphthalenyl ester, [1S-[1α,3α,7β,8β(2S*,4S*),-8aβ]]]
liver tumor mass in repeated imaging studies ([1]; Case No. 1): never showed any liver tumor mass
liver tumor mass in repeated imaging studies ([1]; Case No. 2): never showed any liver tumor mass
liver tumor mass in repeated imaging studies ([1]; Case No. 3): never showed any liver tumor mass
subsequent development of liver cancer ([1]; patients with an elevated alphafetoprotein level who underwent treatment): None of the patients subsequently developed liver cancer
malignancy detected by careful imaging studies ([1]; patients with known liver diseases at high risk, liver diseases continued to progress): no malignancy was ever detected
time until alphafetoprotein level normalized ([2]; Case No. 1: Hepatitis B, rapidly increasing alphafetoprotein, progressively increased dosages of simvastatin): four
alphafetoprotein level after patient stopped taking simvastatin ([2]; Case No. 1: after stopping simvastatin): 33
alphafetoprotein level after simvastatin was re-introduced ([2]; Case No. 1: re-introduced at progressively increased dosages): normalized and has remained normalized
alphafetoprotein level on maintenance dosages of simvastatin ([2]; Case No. 2): remained normalized
time until alphafetoprotein level normalized ([2]; Case No. 2: Hepatitis B, progressively increasing alphafetoprotein, increasing doses of simvastatin): ≤ 5 months
alphafetoprotein level after normalization ([2]; Case No. 3): remained normalized
time until alphafetoprotein level normalized ([2]; Case No. 3: Hepatitis C, alphafetoprotein above 50 before treatment, protocol administration): ≤ 2 months
elevation of alphafetoprotein during observation period ([2]; Case No. 4: patients with Hepatitis B and C or other liver cirrhosis, normal alphafetoprotein, simvastatin daily since diagnosis): None of these patients showed an elevation of alphafetoprotein
course of alphafetoprotein level ([2]; patients with an elevated alphafetoprotein level (above 10 ng/mL) who underwent treatment): progressively decline over several weeks to several months to normal values
